Data on two substances can be found in US9074019B2, “Methods, systems, and compositions for calpain inhibition” (HENRY FORD HEALTH SYSTEMS, priority 2008, dated 2015).

Series [1] deals with focal cerebral ischemia (2 hour MCAO). The series can be described thus: Neurological score after 2 hour MCAO in rats. The settings on record: for Neurological Score 0 Day: score 0-3 (3 most severe), day 0; for Neurological Score 1 Day: day 1. The series is classed as in vivo, male Wistar rats. The protocol:
(§1) Based on our studies, we selected and further tested SEQ ID NO: 5 for its cerebroprotective capacity after 2 hour middle cerebral artery (“MCAO”) ischemia in the Two hour MCAO by the suture method was induced in 21 male Wistar rats. […] Animals survived 7 days and neurological testing (score 0-3, 3 being the most severe) was performed. After sacrifice the brain samples were formalin fixed and infarct volumes were calculated using standard computerized image analysis. Independent t-test was used for statistical analysis.
(§2) Following an institutionally approved animal care protocol, male Wistar rats (270-290 g) were obtained from Charles River Breeding Co. (Wilmington, Mass., USA). Two-hour middle cerebral artery occlusion (MCAO) by the intravascular suture method, drug infusion, measurement of infarct volume and neurological deficits were performed as detailed previously.
(§3) SEQ ID NO: 5 (50 μM solution, i.v. infusion at 15 μl/min for 4 h; 3 mg/kg), SEQ ID NO: 13 or vehicle (1% DMSO in saline) was administered to rats […] (n=6-9) immediately after reperfusion following 2 h of MCAO. Sham-operated animals had surgery but no MCA occlusion. Animals to be studied for neurological score and infarct volume survived 7 days.
Neurological scores have been previously defined as follows: no observable deficit=0, forelimb flexion=1, decreased resistance to lateral push with forelimb flexion=2, same behavior as 2 plus circling=3. […] However, the difference in performance between the SEQ ID NO: 5-treated animals and the vehicle controls (1.00±0.17 vs. 1.78±0.22, *P<0.05, n=9 per group; independent t-test) and the SEQ ID NO: 13-treated group (1.00±0.17 vs. 1.44±0.18, #P<0.05, n=9 per group; independent t-test) was statistically significant at day 7 post-injury.
We assessed functional outcome as an endpoint of our evaluation by the method of Bederson et al. Treatment with SEQ ID NO: 5 immediately after 2-h MCAO reduced neurological deficits by 24% and 44% on day 4 and day 7, respectively, compared to vehicle-treated stroke controls. Infarct volume was a secondary outcome and was measured at day 7 after stroke. The extent of cerebral infarction was reduced by 35% in the SEQ ID NO: 5-treated animals compared to vehicle-treated animals Due to the predictable location of areas of infarction and consistent production of neurological deficits in the MCAO model used in this study, the effects of SEQ ID NO: 5 on neurological outcome and size of infarction produced by focal cerebral ischemia could be reliably studied. It must be noted, however, that, infarction volumes could correlate poorly with functional outcome because small lesions in cortical locations can produce major functional deficits. Conversely, large lesions in relatively silent areas cause little detectable function loss. Reduction of neurological deficits after stroke has been attributed to synaptic and functional reorganization in the cerebral cortex and in subcortical structures after ischemic injuries.
(§4) Two-hour middle cerebral artery occlusion (MCAO) was used to induce ischemic stroke in Male Wistar rats. SEQ ID NO: 5 was given intravenously to rats immediately after reperfusion following 2 h of MCAO, while control animals had infusion of vehicle solution (n=6-9). Animals to be studied for neurological score and infarct volume survived 7 days, and neurological testing (mNSS and corner turn) were performed at 1, 4, and 7 days after MCAO. In another set of experiments, the animals were sacrificed at 48 h, and histology was performed for BBB integrity (albumin and fibrin leakage from the cerebral microvasculature into brain parenchyma). Phosphorylation of endothelial nitric oxide synthase (eNOS) was analyzed by Western blotting with specific antibodies raised against synthetic phosphorylated peptides representing known eNOS phosphorylation sites.

In another series the test system is BBB integrity. The experiment in a line: BBB integrity (albumin and fibrin leakage into brain parenchyma) after MCAO. It counts as in vivo, male Wistar rats. The protocol:
as §4, with “sites. […] Shown are representative immunoblots of RSA levels in the ipsilateral cortical (A) and subcortical (B) regions of sham-operated, ischemic vehicle-treated, and ischemic. C, Densitometric analysis of RSA levels in ipsilateral cortex and subcortex (*p<0.05 vs vehicle; n=6) at 24 h following MCAO. […] Representative fluorescent micrographs of fibrin deposition outside the cerebral microvasculature of untreated (MCAO, panel A) and treated (+SEQ ID NO: 5, panel B) rats subjected to 2 hour MCA occlusion with reperfusion and 48 hour survival are shown. A schematic representation of a coronal brain section showing eight fields selected from the ischemic boundary zone (IBZ) for quantitative measurements of immunochemical staining for fibrin in the cortex and striatum is shown (panel C).” for “sites.”

The subject of a further series is purified calpain. The experiment in a line: Calpain-inhibitory activity (steady-state and stopped-flow enzyme inhibition kinetics). It counts as biochemical. The settings on record: in words.
Excerpt: (§5) We developed our peptidomimetic inhibitors of calpain by rational and systematic chemical modifications of the amide bond and/or side chain functionalities of permutations of SEQ ID NO: 2, followed by calpain-inhibitory kinetic measurements of the designed molecules in vitro as well as an assessment of their ability to improve neurological recovery in vivo after focal cerebral ischemic in rats. The structural modifications performed to create the peptidomimetics included, without limitation, amino acid replacements by chemical mutagenesis, amide bond mimics, methylene group insertion between the α-carbon and the carbonyl functionalities of individual amino acids, replacement of natural amino acid side chains with non-natural moieties, and amino acid side chain cyclizations. Calpain-inhibitory activity of the peptidomimetics was measured by steady-state and stopped-flow enzyme inhibition kinetic studies using purified calpain and natural protein or synthetic fluorogenic peptide substrates. The effect of the peptidomimetics on cerebral infarction, cerebral endothelial function and neurological functional recovery after ischemic stroke was assessed using a rat model of 2 hour middle cerebral artery (“MCAO”) ischemia.
as §3

In series [2] the test system is focal cerebral ischemia (2 hour MCAO). The experiment in a line: Infarct volume after 2 hour middle cerebral artery occlusion (MCAO) in rats. It counts as in vivo, male Wistar rats. The settings on record: for infarct volume: 3 mg/kg i.v. 4 h, mean±SEM, no unit printed in this block, in %; for Lesion Volume % of Hemisphere (percent hemispheric infarct volume): 3 mg/kg i.v. infusion for 4 h after reperfusion, mean ± SE, n=9, 3 mg/kg.
Excerpt: as §5, §1, §2, §3
From the H&E sections, the ischemic core area with diffuse pallor of the eosinophilic background and the border area with vacuolation or sponginess and neutrophils can be identified under the microscope. […] The subcortical region in the core slices of C and D is also affected (white arrows). The ischemic damage (i.e. cell death, loss of tissue, or encephalomalacia) is less in the SEQ ID NO: 5-treated animals compared to the vehicle-treated controls. By comparison, the contralateral side appeared undamaged by both gross inspection and in histological sections.

Series [3] has as its system calpain-mediated cleavage of αII-spectrin. The experiment in a line: Western blot of αII-spectrin breakdown products (SBDPs) in rat brain following MCAO. It counts as in vivo, male Wistar rats. The method, then: Following MCAO and drug infusion, the animals were sacrificed after 24 or 48 h of survival. At that time, the brains were extracted and separated into right and left, cortical and subcortical regions, snap-frozen in liquid nitrogen and stored at −80° C. until used. For Western blot analysis, the brain samples were pulverized to a fine powder with a small mortar and pestle set over dry ice. The pulverized brain tissue powder was homogenized in a solution of 0.25 M sucrose, […] 2-(N-morpholino)-ethanesulfonic acid, 1 mM EDTA, pH 6.5, containing 0.025 mM E-64, 2.0 mM AEBSF, 0.5 mM PMSF, 0.02 mM leupeptin, 0.05 mM pepstatin, and 0.001 mM aprotinin (homogenization buffer) at 4° C. in a Potter-Elvehjem homogenizer. T homogenates were then centrifuged at 4° C. for 20 min at 16,000 g. Aliquots of the supernatant were stored at −80° C. until used for experiments. Protein concentrations were determined using micro BCA Protein Assay kit (Pierce, Rockford, Ill.). SDS-PAGE was carried out according to Laemmli and immunoblots were performed according to the technique of Towbin et al. Mouse monoclonal ant II-spectrin antibody (MAB 1622, 1:1,000) and horse radish peroxidase (HRP)-conjugated goat anti-mouse IgG (AP124P, 1:10,000) were from Chemicon (Temecula, Calif.). Labeled proteins were detected with the enhanced chemiluminescence method according to the manufacturer's instructions (GE Healthcare Biosciences, Piscataway, N.J., USA). Bands were quantified by densitometry using Gel-Doc 2000 (Bio-Rad, Richmond, Va.) and the free open source software ImageJ.
Pathologic activity of calpain and in vivo efficacy of SEQ ID NO: 5 were assessed by Western blot analysis of all-spectrin breakdown products (SBDPs) generated in the rat brain following MCAO. […] (E) Densitometric analysis of SBDP150/SBDP145 levels in ipsilateral cortex and subcortex at 24 and 48 h following MCAO.
Background: In western blotting, separated proteins are transferred to a membrane and probed.

The test system of series [4] is endothelial nitric oxide synthase (eNOS). The series can be described thus: eNOS phosphorylation in brain after MCAO (Western blotting). The series is classed as in vivo, male Wistar rats. The method, then: as §4
C: Graphical representation of the ratio of upper:lower phospho-eNOS protein band intensities (n=6 rats/experimental group).

Setting [5] is: rat 2-h MCAO, 3 mg/kg i.v. 4 h, mean ± SE, n=9.
The mark [6] stands for this setting: rat 2-h MCAO, 3 mg/kg i.v. 4 h, score 0-3, mean ± SE, n=9.
[7] abbreviates: rat 2-h MCAO, 3 mg/kg i.v. 4 h, score 0-3, mean ± SE, n=9, day 4.

Where “and” joins values, the source holds several entries; their conditions need not be identical. Identical values can stand only once. Entries after “also recorded” stand apart in the source; their conditions may differ. Square brackets hold non-standard residues; d marks the D form. Ends that are not written are not given here. βAla = NCCC(=O)O

Consider “DPMSSTYIEELGKREVTIPPKYVALLPAVLLALLAP [SEQ ID NO: 5]”, for which the improving neurological recovery entry in series [1] (50 micromolar solution via femoral vein for 4 hours after reperfusion, total dose 3 mg/kg) is “effective”. In series [1] (setting [5]), the “Neurological Score 0 Day” value amounted to 2.89 ± 0.11. In series [1] (setting [6]), the “Neurological Score 1 Day” value turned out to be 2.33 ± 0.24. Further, in series [1] (setting [7]), the “Neurological Score 4 Days” value was determined as 1.44 ± 0.18. In series [1] (rat 2-h MCAO, treatment immediately after MCAO, day 4), the “reduction of neurological deficits compared to vehicle-treated stroke controls, day 4” value is on record as 24%. In series [1] (rat 2-h MCAO, treatment immediately after MCAO, day 7), the “reduction of neurological deficits compared to vehicle-treated stroke controls, day 7” value was 44%. Besides, the “BBB integrity as assessed by albumin and fibrin extravasation” value with BBB integrity (48 h, compared to controls) is “significant improvement”. Moreover, the “rat serum albumin (RSA) leakage into the ischemic brain parenchyma” value in the series on BBB integrity (FIG. 5, ipsilateral cortex and subcortex, 24 h following MCAO, p<0.05 vs vehicle, n=6) is recorded as “reduces rat serum albumin (RSA) leakage”. Further, the “fibrin deposition outside the cerebral microvasculature” value with BBB integrity (FIG. 6, 2 hour MCA occlusion with reperfusion and 48 hour survival) is “decreases fibrin deposition outside the cerebral microvasculature”. In the series on purified calpain, the calpain inhibitory activity result was “potent” and the specificity for calpain result was “specific inhibitor of calpain”. Also, in series [2] (FIG. 3, compared to vehicle-treated controls), the “ischemic damage (cell death, loss of tissue, encephalomalacia) in H&E sections” value is “less”. For the same substance, in series [2] (rat 2-h MCAO, day 7), the infarct volume came to 24.9±3.8; the “Lesion Volume % of Hemisphere (percent hemispheric infarct volume)” value is 24.9±3.8 % of Hemisphere and 24.9 ± 3.8*^,# % of Hemisphere; the “reduction of infarct volume (extent of cerebral infarction) compared to vehicle-treated animals” value is given as 35%. In the series with cultured cells, the “toxicity to cultured cells” value is given as “non-toxic to cultured cells”. Moreover, the “calpain-mediated cleavage of αII-spectrin in rat brain following MCAO” value in series [3] (FIG. 4, 24 h and 48 h) is listed as “blocks calpain-mediated cleavage of αII-spectrin”. In series [3] (cortical and subcortical regions, 48 h after MCAO, P<0.05 vs. vehicle, n=6), the “SBDP145 levels at 48 h post-injury” value was “significantly reduced SBDP145 levels”. Moreover, the “SBDP150 and SBDP145 formation at 24 h post-injury” value in series [3] (ipsilateral cortex and subcortex, 24 h after MCAO) is “blocked SBDP150 and SBDP145 formation to basal levels; also recorded: completely blocked SBDP145 accumulation”. The “eNOS phosphorylation state (eNOS-Ser633, ratio of upper:lower band)” value in series [4] (FIG. 7, n=6 rats/group) is on record as “modulates eNOS phosphorylation state”. The “eNOS threonine-495 phosphorylation in the brain after stroke” value in series [4] (post-injury treatment, FIG. 8) is recorded as “significantly reduced; also recorded: induces eNOS-Thr495 dephosphorylation”.
As to “DPMSSTYIEE[βAla]GKREVTIPPKYVALLPAVLLALLAP [SEQ ID NO: 13, reference compound]”, in series [1] (setting [5]), the “Neurological Score 0 Day” value was found to be 2.89 ± 0.11. Besides, the “Neurological Score 1 Day” value in series [1] (setting [6]) is 2.11 ± 0.20. Moreover, the “Neurological Score 4 Days” value in series [1] (setting [7]) is reported as 1.56 ± 0.18. Also, the “Neurological Score 7 Days” value in series [1] (rat 2-h MCAO, 3 mg/kg i.v. 4 h, score 0-3, mean ± SE, n=9, day 7, 3 mg/kg) is listed as 1.44±0.18. Also, in the series with purified calpain, the calpain inhibitory activity entry was “less active”. Besides, the calpain inhibitory activity result with purified calpain (listed as SEQ ID NO: 5-βAla) is “inactive”. Besides, in series [2] (rat 2-h MCAO, day 7), the infarct volume is given as 33.8±4.2 and the “Lesion Volume % of Hemisphere (percent hemispheric infarct volume)” value is given as 33.8±4.2 % of Hemisphere.
